Data as given in patent publication US11344534B2, “Cholinergic agonism for the treatment of pancreatic cancer” (priority 2017, dated 2022).
“Also recorded” adds a separate entry of the source.

What was measured:
[1] = system: Kras^+/LSL-G12D mutant spheres; assay: 3D Matrigel sphere culture of Kras mutant (Ad-Cre) pancreatic acinar cells; type: cell-based, mouse; conditions: for number of spheres / size of spheres: day 5, pilocarpine 1 mM, scopolamine 10 μM, McN-34A 50 μM, pirenzepine 50 μM, vs controls; for sphere formation and growth of Kras mutant spheres: oncogenic K-Ras allele activated by adeno-Cre virus
Description: Cholinergic stimulation could in theory promote cancer indirectly through effects on stromal cells, or directly through effects on pancreatic epithelial cells. To determine whether cholinergic stimulation promoted tumor development in part through muscarinic receptors on cancer cells, the sphere forming capacity of K-Ras^+/LSL-G12D mutant pancreatic acinar cells was assessed in a 3D Matrigel culture system, with or without muscarinic stimulation. K-Ras^+/LSL-G12D mutant spheres were generated from K-Ras^+/LSL-G12D pancreatic acinar cells by treatment with adenoviral delivered Cre (Ad-Cre).
3D cultures were performed as described previously (Wescott et al., 2009). Organoids were cultured for 5 days before analysis. Adenoviral delivered Cre (Ad-Cre) was added to the cultures and medium was changed after 12 hours. […] Sphere size and […] were analyzed using ImageJ software.
To determine whether cholinergic stimulation suppresses tumor development in part through specific muscarinic receptors on cancer cells, the sphere forming capacity of Kras^+/LSL-G12D pancreatic acinar cells in a 3D Matrigel culture system in the absence and presence of muscarinic agonists and antagonists was assessed. Kras^+/LSL-G12D mutant spheres were generated from Kras^+/LSL-G12D mice by delivery of an adenoviral Cre (Ad-Cre).
3D cultures were performed as described previously^18. Organoids were cultured for 5 days before analysis. Adenoviral delivered Cre (Ad-Cre) was added to the cultures and medium was changed after 12 hours. […] Sphere size and number were analyzed using ImageJ software.

[2] = system: human Panc1 cells; assay: Western blot of EGFR/MAPK and PI3K/AKT signaling, Panc1; type: cell-based; conditions: for phosphorylation of EGFR, BRAF, ERK1/2, PI3K and AKT kinases (western blot): 72 hours; for ratios of p-EGFR/EGFR, p-BRAF/BRAF, p-ERK/ERK, p-PI3K/PI3K and p-AKT/AKT (densitometry): single agent alone
Description: (§1) To analyze EGFR and the MAPK and PI3K-Akt pathway in human and murine pancreatic cancer cell lines, cells were grown in 12-well plate to around ˜70% confluent, changed the 0.5% FBS medium, added the drugs respectively and incubated them for further 72 hrs incubation in a typical CO2 incubator (˜20% O2). After removing the medium, cells were washed twice with PBS, and protein extraction was performed on ice using RIPA buffer with protease inhibitor (Complete) (Roche) cocktail and phosphatase inhibitor (phosSTOP) (Roche). Protein samples were subsequently separated in 10% Bis-Tris Gel NuPAGE® electrophoresis using MES SDS Running Buffer (Invitrogen, CA, USA). After transfer to nitrocellulose, membranes were blocked with 5% BSA, and samples were probed with the following primary antibodies: p-EGFR (Cell Signaling), EGFR (Cell Signaling), p-BRAF (Cell Signaling), BRAF (Cell Signaling), p-ERK1/2 (phosphorylated p44/42 MAPK) (Thr202/Tyr204) (Cell Signaling), ERK1/2 (p44/42 MAPK) (Thr202/Tyr204) (Cell Signaling), p-PI3K (Cell Signaling), PI3K (Cell Signaling), p-Akt (Cell Signaling), Akt (Cell Signaling), and β-actin (Cell Signaling) followed by horseradish peroxidase-coupled secondary antibody. Immunoreactive bands were visualized using 5-bromo-4-chloro-3-indolyl phosphate/nitro blue tetrazolium and bands were quantified with ImageJ.
(§2) To analyze EGFR, MAPK and PI3K-AKT pathways in human and murine pancreatic cancer cell lines, cells were grown in 12-well culture plates to ˜70% confluency. The medium was then changed to 0.5% FBS medium, the respective drugs were added, and they were incubated for an additional 72 hours in a CO2 incubator (˜5% CO2). After removing the medium, cells were washed twice with PBS, and protein extraction was performed on ice using RIPA buffer with protease inhibitor (Complete, Roche) cocktail and a phosphatase inhibitor (phosSTOP, Roche). Protein samples were subsequently separated by 10% Bis-Tris Gel NuPAGE® electrophoresis using MES SDS Running Buffer (Invitrogen, CA, USA). After transfer to nitrocellulose, membranes were blocked with 5% BSA, and samples were probed with the following primary antibodies: p-EGFR (Cell Signaling), EGFR (Cell Signaling), p-BRAF (Cell Signaling), BRAF (Cell Signaling), p-ERK1/2 (phosphorylated p44/42 MAPK) (Thr202/Tyr204) (Cell Signaling), ERK1/2 (p44/42 MAPK) (Thr202/Tyr204) (Cell Signaling), p-PI3K (Cell Signaling), PI3K (Cell Signaling), p-AKT (Cell Signaling), AKT (Cell Signaling), and β-actin (Cell Signaling) followed by horseradish peroxidase-coupled secondary antibody. Immunoreactive bands were visualized using 5-bromo-4-chloro-3-indolyl phosphate/nitro blue tetrazolium and bands were quantified with ImageJ.

[3] = system: murine PDAC cell lines (Panc02, K8282); assay: MTT assay, murine PDAC cell lines; type: cell-based, mouse; conditions: for proliferation (MTT assay): 72 hours, 0.5% FBS medium
Description: (§3) Cell proliferation in each cell line was assessed with a 3-(4,5-dimethylthiazol-2yl)-2,5-diphenyltetrazolium bromide (MTT) assay kit (Sigma) in accordance with the manufacturer's instructions. 3×10^3 cells were grown in 96-well plate to around ˜70% confluent, changed the 0.5% FBS medium, added the drugs respectively and incubated them for further 72 hrs incubation in a typical CO2 incubator (˜20% O2). Treated cells were rinsed twice with PBS, incubated in 10 ll MTT solution for 4 hr at 37° C., and 100 uL DMSO was added to each well. The absorbance of each well was measured at 570 nm using Tilter-Tech 96-well multiscanner (Becton Dickinson, Heidelberg, Germany). The relative number of viable cells compared with the number of cells without drug treatment was expressed as percent cell viability using the following formula:
(§4) Cell proliferation in each cell line was assessed with a 3-(4,5-dimethylthiazol-2yl)-2,5-diphenyltetrazolium bromide (MTT) assay kit (Sigma) in accordance with the manufacturer's instructions. 3×10^3 cells were grown in 96-well plate to ˜70% confluency, the media was changed to 0.5% FBS medium, the respective drugs were added, and they were incubated for an additional 72 hours in a CO2 incubator (˜5% CO2). Treated cells were rinsed twice with PBS, incubated in 10 ul MTT (5 mg/ml PBS) solution for 4 hours at 37° C., and 100 uL DMSO was then added to each well. The absorbance of each well was measured at 570 nm using a Tilter-Tech 96-well multiscanner (Becton Dickinson, Heidelberg, Germany). The relative number of viable cells compared with the number of cells without drug treatment was expressed as percent cell viability using the following formula: cell viability (%)=A570 of treated cells/A570 of untreated cells.

[4] = system: murine K8282 cells; assay: Western blot of EGFR/MAPK and PI3K/AKT signaling, K8282; type: cell-based, mouse; conditions: for phosphorylation of EGFR, BRAF, ERK1/2, PI3K and AKT kinases (western blot): 72 hours; for ratios of p-EGFR/EGFR, p-BRAF/BRAF, p-ERK/ERK, p-PI3K/PI3K and p-AKT/AKT (densitometry): single agent alone
Description: as §1, §2

[5] = system: Organoid cultures derived from LSL-K-Ras^G12D pancreata not treated by an Adeno-Cre virus; type: cell-based; conditions: no Adeno-Cre virus (Kras not activated)
[6] = system: human PDAC cell lines (MiaPaca2, Panc1); assay: MTT assay, human PDAC cell lines; type: cell-based; conditions: for proliferation (MTT assay): 72 hours, 0.5% FBS medium
Description: as §3, §4

[7] = system: KPC mice; assay: KPC mice with established PDAC treated with gemcitabine with or without bethanechol; type: in vivo, mouse; conditions: KPC mice
Description: Next, the role of cholinergic signaling in advanced pancreatic cancer was investigated using the genetically engineered KPC (K-Ras^+/LSL-G12D;p53^+/R172H;Pdx-1-Cre) mouse model, which develops ductal adenocarcinoma by 17-19 weeks (Olive et al., 2009, Hingorani et al., 2005).
K-Ras^+/LSL-G12D, p53^+/R172H, and Pdx-1-Cre mice were provided by Dr. Kenneth Olive (Columbia University). M1RKO mice were purchased from the Jackson Laboratory. KC mice and KPC mice were crossed with M1RKO mice. For several experiments, KC mice received pyloroplasty with or without vagotomy at 8 weeks and KC+VxPP mice were treated with or without bethanechol (400 μg/ml) after surgery immediately. They were sacrificed at 20 weeks. In addition, KPC mice were treated with gemcitabine biweekly and with or without bethanechol when the tumor size of 3-5 mm detected using ultrasound. They were sacrificed when the mice were moribund. For liver metastatic experiments, WT type C57/B6 mice received spleen injection and hemi-splenectomy. […] They were sacrificed when the mice were moribund.
Next, the role of cholinergic signaling in established PDAC was investigated using the KPC mouse model, which develops PDAC at a median age of 17-19 weeks^2, 29. KPC mice with pancreatic tumors that measured 3-5 mm in diameter on ultrasound were randomized to treatment with gemcitabine (GEM) alone, or GEM+bethanechol (FIG. 8I).
LSL-Kras^+/LSL-G12D, LSL-Trp53^+/R172H, and Pdx1-Cre mice were bred by Dr. Kenneth P. Olive and co-workers. Chrm1KO mice (C57BL/6-Chrm1tm1 Stl/J, (M1RKO) mice^1 were purchased from the Jackson Laboratory. KC mice and KPC mice were crossed with M1RKO mice. In the vagotomy experiments, KC mice received pyloroplasty with or without vagotomy at 8 weeks, and some KC+VxPP mice were treated with bethanechol ([…] in drinking water) immediately after surgery and then sacrificed at 20 weeks. KPC mice in treatment studies were palpated weekly for tumors in the pancreas. Once a tumor was suspected, KPC mice were screened by VEVO 2100—Ultrasound Imaging System (FUJIFILM VisualSonics) for pancreatic cancer. KPC mice were treated with gemcitabine, given by i.p. injection 100 mg/kg biweekly, with or without bethanechol, when a tumor size of 3-5 mm was detected using ultrasound. Mice were sacrificed when the mice were moribund. NOD/SCID mice were implanted with Panc1 cells subcutaneously and sacrificed at 30 days after implantation. For liver metastatic experiments, WT type C57/B6 mice received a splenic injection of labeled Panc02 cells, followed by hemi-splenectomy. The mice were then divided into three groups. […] Mice were then sacrificed when moribund. At necropsy, hepatic metastases that could clearly be identified as tumor nodules on gross inspection were separated. All animal studies and procedures were approved by the IACUC committee at Columbia University. All mice were bred under specific pathogen free conditions. Comparisons were made with age- and sex-matched control animals.
CD44, p-EGFR, p-PI3K, p-ERK, and Ki67 positive cells were quantified in at least five high power fields from at least 3 mice per group. Total cells per field were counted via morphometric analysis using ImageJ and the ratio of positive cells to total cell number calculated.

[8] = system: CHRM1; assay: qRT-PCR of muscarinic receptor expression, human PDAC cell lines; type: cell-based; conditions: human PDAC cell lines (MiaPaca2 and Panc1), compared to control
[9] = system: Chrm1; assay: qRT-PCR of muscarinic receptor expression, murine PDAC cell lines; type: cell-based, mouse; conditions: murine PDAC cell lines (Panc02 and K8282), compared to control

Compound | number of spheres [1] | size of spheres [1] | sphere formation and growth of Kras mutant spheres [1] | phosphorylation of EGFR, BRAF, ERK1/2, PI3K and AKT kinases (western blot) [2] | ratios of p-EGFR/EGFR, p-BRAF/BRAF, p-ERK/ERK, p-PI3K/PI3K and p-AKT/AKT (densitometry) [2] | proliferation (MTT assay) [3] | phosphorylation of EGFR, BRAF, ERK1/2, PI3K and AKT kinases (western blot) [4] | ratios of p-EGFR/EGFR, p-BRAF/BRAF, p-ERK/ERK, p-PI3K/PI3K and p-AKT/AKT (densitometry) [4] | sphere forming capacity / growth of WT spheres [5] | proliferation (MTT assay) [6] | increase in proliferation due to muscarinic antagonists ([3]; agonist added to antagonist) | increase in proliferation due to muscarinic antagonists ([6]; agonist added to antagonist) | overall survival ([7]; GEM with or without bethanechol) [days] | overall survival ([7]; tumors 3-5 mm at enrollment, GEM biweekly i.p. with or without bethanechol) [days] | Chrm1 expression [8] | Chrm1 expression [9]
CN1CCN(CC(=O)N2c3ccccc3C(=O)Nc3cccnc32)CC1 [pirenzepine] | significantly more | larger | stimulated | significantly more phosphorylated | increased | increased; also recorded: stimulated | significantly more phosphorylated | increased | significantly prevents | increased; also recorded: stimulated | – | – | – | – | – | –
C[N+](C)(C)CC#CCOC(=O)Nc1cccc(Cl)c1.[Cl-] [McN-34A] | significantly fewer | smaller | suppressed | significantly less phosphorylated | significantly decreased | suppressed | significantly less phosphorylated | significantly decreased | increased | suppressed | blocked; also recorded: inhibited to some extent | blocked; also recorded: inhibited to some extent | – | – | – | –
Nc1ccn([C@@H]2O[C@H](CO)[C@@H](O)C2(F)F)c(=O)n1 [GEM] | – | – | – | – | – | – | – | – | – | – | – | – | 29 | 29 | – | –
CN1[C@@H]2C[C@@H](OC(=O)[C@H](CO)c3ccccc3)C[C@H]1[C@@H]1O[C@@H]12 [scopolamine] | significantly more; also recorded: increased | larger | increase | significantly more phosphorylated | – | increased | significantly more phosphorylated | – | – | increased; also recorded: stimulated | – | – | – | – | increased; also recorded: higher | increased; also recorded: higher
